The source of these data is PMC3258254, “Intestinal Absorption and First-Pass Metabolism of Polyphenol Compounds in Rat and Their Transport Dynamics in Caco-2 Cells” (PLoS ONE, 2012).

Data set [1] is described as follows: Pharmacokinetics in rat plasma after oral administration of polyphenols. As to conditions: for AUC / Cmax: 50 µmol•kg^–1; for K / T1/2Ke / Tpeak: rat plasma, oral 50 µmol•kg^–1, mean ± SD, n = 6. The source says: Male Sprague-Dawley rats (70–110 days old) weighing between 270 g and 320 g were obtained from the experimental animal centre of the Fourth Military Medical University, Xi'an, China. The rats were subjected to fasting overnight, with free access to water before the day of experiment.
The polyphenol compounds solution, prepared in 0.5% sodium carboxyl methyl cellulose (CMC-Na), were orally administrated to the rats using a dose of 50 µmol•kg^–1. Blood samples were collected from the vena abdominalis under light ether anaesthesia at different times (0.08, 0.17, 0.5, 1, 2, 4, 8, 12, 16, 24 and 36 h). The samples were immediately centrifuged for 10 min at 7185 g to obtain plasma, which was then frozen at −70°C until required for analysis.
Metabolite samples were analyzed after treatment with β-glucuronidase or sulphatase [21]–[22]. The samples (0.2 mL) were extracted with 1 mL ethyl acetate by vigorous vortex mixing for 1 min, then centrifuged at 3000× g at room temperature for 10 min. The supernatants were evaporated to dryness under N2, reconstituted in 100 µL of methanol, and analyzed for the presence of polyphenols and their derivatives using liquid chromatography coupled with tandem mass spectrometry (LC/MS/MS) using a Quattro Premier system operating under MassLynx MS Software, v4.1 (Waters Corporation, Milford, MA, USA). […] Quantitation was performed by multiple reaction monitoring of the deprotonated precursor ion and the related product ion for these polyphenols using the internal standard method with peak area ratio [23]–[24]. Collision-induced dissociation was achieved using argon as the collision gas. Standard solutions of the polyphenol compounds (1 µg•mL^–1) were applied to optimize the detection conditions in the presence of mobile phase. […] The column temperature and flow rate were 25°C and 0.2 mL⋅min^–1, respectively.

The test system of data set [2] is rat small intestine. The data set can be described thus: In situ intestinal perfusion model (isolated rat small intestine, luminal and vascular perfusion). The class given is in vivo. The protocol: The rats were anaesthetized with an intra-abdominal injection of a mixture containing 40 mg•kg^–1 sodium phenobarbital. The animals were then heparinized (90 U•kg^–1) via the vena caudalis. […] Briefly, a segment of intestine between 7 and 11 cm long was identified and separated and silicone tubing was placed inside both ends of the segment. The tube at the proximal side was connected to a peristaltic pump for luminal perfusion.

A short description of data set [3]: Transport (permeability, Papp) across Caco-2 cell monolayers. The format is in vitro ADME, human. Conditions: human, mean ± SD; for Papp A→B at 50 µM: Caco-2, apical to basolateral, n = 6, read-out: Papp AP to BL; for Papp B→A at 50 µM: Caco-2, basolateral to apical, n = 6, read-out: Papp BL to AP. As for the experimental part:
(§1) Caco-2 cells, derived from human colorectal adenocarcinoma cells, were obtained from the American Type Culture Collection (Manassas, VA, USA) and maintained in plastic culture flasks (Corning Costar, Cambridge, MA, USA). The cells were cultured in Dulbecco's modified Eagle's minimal essential medium supplemented with 1% non-essential amino acids, 1% L-glutamine, 20% foetal bovine serum, 100 U•mL^–1 penicillin, and 0.1 mg•mL^–1 streptomycin, and were grown in a humidified atmosphere of 5% CO2 in air at 37°C (Figure S1). Cells were subcultured to 80% confluency.
(§2) For transport experiments, Caco-2 cells were seeded at a cell density of 1×10^5 cells•cm^−2 on Millicell Cell Culture Inserts (Millipore, Billerica, MA, USA). Cells were used 19 to 21 days after seeding, by which time the transepithelial electrical resistance value was >300 Ω•cm^–2. The culture medium was replaced with fresh medium 24 h before the transport experiments. Polyphenol compounds (50 µM) were added from the apical or basolateral side to evaluate the transport characteristics of the cells. To investigate the role of different transporters, Caco-2 cells were preincubated with verapamil (an inhibitor of P-glycoprotein), cyclosporine A (a dual inhibitor of P-glycoprotein and multi-drug resistance protein 2, MRP2), or phloridzin, (a selective inhibitor of sodium/glucose cotransporter 1, SGLT1) to investigate the absorptive and transport changes of the polyphenol compounds [19]–[20]. The samples were collected and stored at −70°C until needed for analysis.

The subject of data set [4] is Caco-2 cells. The data set is described as above. The format is in vitro ADME, human. As to conditions: 50 µM, parent compound. As for the experimental part:
as §1, §2

The subject of data set [5] is Caco-2 cells. The data set can be described thus: Cellular uptake / intracellular accumulation in Caco-2 cells, with or without transporter inhibitors. The format is in vitro ADME, human. Conditions: for Intracellular accumulation / uptake in the presence of phloridzin: 50 µM phloridzin (SGLT1 inhibitor); for Time of maximum intracellular accumulation (given as Cmax): 50 µM, parent compound in Caco-2 cells; for Intracellular accumulation after pre-treatment with cyclosporine A: 100 µM cyclosporine A (P-glycoprotein and MRP2 inhibitor); for Intracellular accumulation after pre-treatment with verapamil: 100 µM verapamil (P-glycoprotein inhibitor). The protocol:
Caco-2 cells, derived from human colorectal adenocarcinoma cells, were obtained from the American Type Culture Collection (Manassas, VA, USA) and maintained in plastic culture flasks (Corning Costar, Cambridge, MA, USA). […] Cells were subcultured to 80% confluency. For all cellular uptake studies of polyphenols, Caco-2 cells were seeded at a cell density of 6×10^5 cells•cm^–2 on six-well plastic plates. Cells were used 14 to 21 days after seeding. The culture medium was replaced with fresh medium 24 h before the uptake experiments. Polyphenol compounds (50 µM) were added to evaluate the uptake characteristics of Caco-2 cells. To determine the intracellular concentration of polyphenols, the cell lysate was obtained by subjecting the drug-containing cells to three freeze-thaw cycles in liquid nitrogen. Protein concentrations were measured using the Bradford method with bovine serum albumin as a standard. For transport experiments, Caco-2 cells were seeded at a cell density of 1×10^5 cells•cm^−2 on Millicell Cell Culture Inserts (Millipore, Billerica, MA, USA). […] The culture medium was replaced with fresh medium 24 h before the transport experiments. Polyphenol compounds (50 µM) were added from the apical or basolateral side to evaluate the transport characteristics of the cells. […] The samples were collected and stored at −70°C until needed for analysis.

Setting [6] is: male, Sprague-Dawley, rat, plasma, po.
[7] abbreviates: male, Sprague-Dawley, rat, in vivo, po.
Where [8] appears, read: 1500 nmol applied, perfusion 60 min.
The mark [9] stands for this setting: 1500 nmol applied, perfusion 60 min, mean ± SD, n = 3.

SMILES strings stand for the structures.

Broadly, the AUC is concentration integrated over time. The low end stands for less exposure, the high end for more exposure. In general, Cmax refers to the highest concentration seen after dosing. In the case of `O=c1cc(-c2ccc(O)cc2)oc2cc(O)cc(O)c12` [Apigenin], in data set [1] (setting [6]), the AUC is 659 ± 25 ng·h/mL and the Cmax was 42 ± 2 ng/mL. Further, in data set [1], the K was 0.16±0.02 ^1 h^−1, the T1/2Ke turned out to be 2.11 ± 0.03 h and the Tpeak stood at 0.50 ± 0.01 h. Also, the “Total percentage of parent compound and metabolites, luminal side compared with vascular side” value (“Total percentage” below) in data set [2] (rat, in vivo) is “two- to three-fold greater”. Moreover, in data set [2] (rat, in vivo, 60 min), the “Luminal effluent, % of delivered dose” value was 53.87 ^2%. In data set [3], the Papp A→B at 50 µM was determined as 13.8 ± 1.21 ×10⁻⁶ cm/s and the Papp B→A at 50 µM came to 12.9 ± 2.54 ×10⁻⁶ cm/s. In data set [4], the “Permeability value BL to AP compared with AP to BL” value is recorded as “no changes”. Also, in data set [5], the “Intracellular accumulation / uptake in the presence of phloridzin” value (from here on “Intracellular accumulation / uptake”) is “no changes were observed”, the “Time of maximum intracellular accumulation (given as Cmax)” value (“Time” for short) was 10 min, the “Intracellular accumulation after pre-treatment with cyclosporine A” value is “clearly increased” and the “Intracellular accumulation after pre-treatment with verapamil” value was “clearly increased”.

`Cc1cc(O)c2c(c1)C(=O)c1cccc(O)c1C2=O` [Chrysophanol]: in data set [1] (setting [6]), the AUC worked out at 1720 ± 57 ng·h/mL and the peak level (Cmax) was 326 ± 18 ng/mL. In data set [1], this compound registered a K of 0.08 ± 0.01 h⁻¹, a T1/2Ke of 8.00 ± 0.28 h and a Tpeak of 3.00 ± 0.01 h. Moreover, the “Total percentage” value in data set [2] (rat, in vivo) is recorded as “no clear differences”. In addition, in data set [2] (rat, in vivo, 60 min), the “Luminal effluent, % of delivered dose” value was 36.82 ^2% and the “Vascular side, % of delivered dose” value is reported as 32.22 ^2%. In addition, in data set [3], the Papp A→B at 50 µM came out at 10.8 ± 2.34 ×10⁻⁶ cm/s and the Papp B→A at 50 µM was found to be 27.4 ± 4.19 ×10⁻⁶ cm/s. Besides, in data set [4], the “Permeability value BL to AP compared with AP to BL” value is on record as “much greater (by a factor of two)”. Also, in data set [5], the “Intracellular accumulation / uptake” value is “reduced the cellular uptake”, the “Time” value was 10 min, the “Intracellular accumulation after pre-treatment with cyclosporine A” value is reported as “increased the uptake” and the “Intracellular accumulation after pre-treatment with verapamil” value is listed as “increased the uptake”.

As for `Cc1cc(O)c2c(c1)C(=O)c1cc(O)cc(O)c1C2=O` [Emodin], in data set [1] (setting [7]), the “Plasma concentration of glucuronidated metabolites relative to sulphated metabolites” value came to 10 fold, the AUC came to 809 ± 17 ng·h/mL and the concentration peaked (Cmax) at 72 ± 6 ng/mL. In data set [1], this compound yielded a K of 0.23 ± 0.04 h⁻¹, a T1/2Ke of 2.93 ± 0.04 h and a Tpeak of 0.50 ± 0.01 h. The “Total percentage” value in data set [2] (isolated intestine perfusion, estimated) is recorded as “two- to three-fold greater”. For the same compound, in data set [3], the Papp A→B at 50 µM was determined as 9.52 ± 1.45 ×10⁻⁶ cm/s and the Papp B→A at 50 µM was 24.4 ± 3.22 ×10⁻⁶ cm/s. The “Permeability value BL to AP compared with AP to BL” value in data set [4] is “much greater (by a factor of two)”. Besides, in data set [5], the “Intracellular accumulation / uptake” value is “reduced the cellular uptake”, the “Time” value was 10 min, the “Intracellular accumulation after pre-treatment with cyclosporine A” value is on record as “increased the uptake” and the “Intracellular accumulation after pre-treatment with verapamil” value was “increased the uptake”.

In data set [1] (setting [6]), `Oc1ccc(/C=C/c2cc(O)cc(O)c2)cc1` [Resveratrol] displayed an AUC of 98 ± 7 ng·h/mL and a Cmax of 157 ± 13 ng/mL. For the same compound, in data set [1], the K came out at 0.38 ± 0.03 h⁻¹ and the T1/2Ke is 1.82 ± 0.05 h. For the same compound, in data set [2] (setting [8]), the “Luminal effluent, % of delivered dose” value is reported as 35.37 ^2% and the “Vascular side, % of delivered dose” value is recorded as 12.74 ^2%. Besides, in data set [2] (setting [9]), the “Luminal effluent, amount” value was 536 ± 27 nmol and the “Vascular side, amount” value is 193 ± 11 nmol. For the same compound, in data set [3], the Papp A→B at 50 µM was 11.3 ± 3.45 ×10⁻⁶ cm/s and the Papp B→A at 50 µM was found to be 7.86 ± 2.67 ×10⁻⁶ cm/s. Further, the “Permeability value BL to AP compared with AP to BL” value in data set [4] is given as “lower”. In data set [5], the “Intracellular accumulation / uptake” value is “no changes were observed”, the “Time” value is on record as “increased in a time-dependent manner”, the “Intracellular accumulation after pre-treatment with cyclosporine A” value is recorded as “clearly increased” and the “Intracellular accumulation after pre-treatment with verapamil” value is “clearly increased”.
